IC50 data for 15 compounds are collected here from patent US11673883B2, “Heterocyclic compounds as immunomodulators” (Incyte Corporation, priority 2016, dated 2023).

As a reminder, the pIC50 is the IC50 on a negative log10 scale, so that one unit is a factor of ten.

This assay concerns the target PD-1/PD-L1 protein/protein interaction (Homo sapiens (Human), UniProt Q9NZQ7). The assay is described as follows: PD-1/PD-L1 Homogeneous Time-Resolved Fluorescence (HTRF) Binding Assay. To be noted: recombinant human PD-L1 (19-238) His-tag, human PD-1 (25-167) Fc tag; 25° C., PBS pH 7.4. As for the experimental part:
Example A. PD-1/PD-L1 Homogeneous Time-Resolved Fluorescence (HTRF) Binding Assay
The assays were conducted in a standard black 384-well polystyrene plate with a final volume of 20 μL. Inhibitors were first serially diluted in DMSO and then added to the plate wells before the addition of other reaction components. The final concentration of DMSO in the assay was 1%. The assays were carried out at 25° C. in the PBS buffer (pH 7.4) with 0.05% Tween-20 and 0.1% BSA. Recombinant human PD-L1 protein (19-238) with a His-tag at the C-terminus was purchased from AcroBiosystems (PD1-H5229). Recombinant human PD-1 protein (25-167) with Fc tag at the C-terminus was also purchased from AcroBiosystems (PD1-H5257). PD-L1 and PD-1 proteins were diluted in the assay buffer and […] was added to the plate well. Plates were centrifuged and proteins were preincubated with inhibitors for 40 minutes. The incubation was followed by the addition of 10 μL of HTRF detection buffer supplemented with Europium cryptate-labeled anti-human IgG (PerkinElmer-AD0212) specific for Fc and anti-His antibody conjugated to SureLight®-Allophycocyanin (APC, PerkinElmer-AD0059H). After centrifugation, the plate was incubated at 25° C. for 60 min. before reading on a PHERAstar FS plate reader (665 nm/620 nm ratio). Final concentrations in the assay were […], 10 nM PD-L1, 1 nM europium anti-human IgG and 20 nM anti-His-Allophycocyanin. IC50 determination was performed by fitting the curve of percent control activity versus the log of the inhibitor concentration using the GraphPad Prism 5.0 software.
A general note: In TR-FRET formats the signal depends on donor and acceptor labels being close together.

Molecules are shown by their SMILES. pIC50: −log10 of the molar value.

Chain of PD-1/PD-L1 protein/protein interaction (Q9NZQ7 19-238): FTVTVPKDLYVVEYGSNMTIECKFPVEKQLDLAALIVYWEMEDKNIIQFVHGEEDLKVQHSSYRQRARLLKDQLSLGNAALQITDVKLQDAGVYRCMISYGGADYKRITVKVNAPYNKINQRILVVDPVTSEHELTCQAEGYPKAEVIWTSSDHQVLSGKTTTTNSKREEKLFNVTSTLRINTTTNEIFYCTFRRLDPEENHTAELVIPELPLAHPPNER

`Cc1c(-c2ccccc2)cccc1N1CCC(NC2CCc3c(c(C(=O)O)nn3C)C2)CC1` (racemic) [Example 38, 1-methyl-5-(1-(2-methylbiphenyl-3-yl)piperidin-4-ylamino)-4,5,6,7-tetrahydro-1H-indazole-3-carboxylic acid]: the pIC50 was at least 7.00. The same measure for `N#Cc1c(C2CCCCC2)cccc1N1CCC(N2CCCC2)CC1` [Example 51, 2-cyclohexyl-6-(4-(pyrrolidin-1-yl)piperidin-1-yl)benzonitrile]: 6.30 to 7.00; for `Cc1c(-c2ccccc2)cccc1N1CCC(NC2CCC(C(=O)O)CC2)CC1` (single isomer, unassigned) [41 (peak 2), 4-(1-(2-methylbiphenyl-3-yl)piperidin-4-ylamino)cyclohexane-carboxylic acid]: at least 7.00. As for `Cc1c(-c2ccccc2)cccc1N1CCC(N[C@H]2CC[C@H](O)CC2)CC1` [Example 30, trans-4-(1-(2-methylbiphenyl-3-yl)piperidin-4-ylamino)cyclohexanol], the pIC50 was at least 7.00.

Consider `Cc1c(-c2ccccc2)cccc1N1CCC(NC2CCC(C#N)CC2)CC1` (single isomer, unassigned) [40 (peak 2), 4-(1-(2-methylbiphenyl-3-yl)piperidin-4-ylamino)cyclohexane carbonitrile], for which the pIC50 was at least 7.00. The same measure for `Cc1c(-c2ccccc2)cccc1N1CCC(NC2CCC(C(=O)O)(c3ccc(Cl)cc3)CC2)CC1` (single isomer, unassigned) [47 (peak 2), 1-(4-chlorophenyl)-4-(1-(2-methylbiphenyl-3-yl)piperidin-4-ylamino)cyclohexane-carboxylic acid]: at least 7.00.

For `Cc1c(-c2ccccc2)cccc1N1CCC(N2CCCC2)CC1` [Example 32, 1-(2-methylbiphenyl-3-yl)-4-(pyrrolidin-1-yl)piperidine], the negative-log IC50 (pIC50) is at least 7.00.

Consider `N#Cc1c(C2=CCCCC2)cccc1N1CCC(N2CCCC2)CC1` [Example 50, 2-cyclohexenyl-6-(4-(pyrrolidin-1-yl)piperidin-1-yl)benzonitrile], for which the pIC50 was at least 7.00. The same measure for `Cc1c(-c2ccccc2)cccc1N1CCC(N[C@H]2CCC[C@H]2CO)CC1` (relative stereo) [Example 34, (cis-2-(1-(2-methylbiphenyl-3-yl)piperidin-4-ylamino)cyclopentyl) methanol]: at least 7.00. Consider `N#Cc1c(-c2ccc3c(c2)OCCO3)cccc1N1CCC(N2CCC(CO)C2)CC1` (stereo not drawn) [Example 25, 2-(2,3-dihydrobenzo[b][1,4]dioxin-6-yl)-6-(4-(3-(hydroxymethyl)pyrrolidin-1-yl)piperidin-1-yl)benzonitrile], for which the negative logarithm of the IC50 (pIC50) was at least 7.00. Take `Cc1c(-c2ccccc2)cccc1N1CCC(NC2CCOC2)CC1` (racemic) [Example 42, 1-(2-methylbiphenyl-3-yl)-N-(tetrahydrofuran-3-yl)piperidin-4-amine]: the pIC50 was at least 7.00.

On to `CO[C@H]1C[C@H](NC2CCN(c3cccc(-c4ccc5c(c4)OCCO5)c3C#N)CC2)C1` [Example 13, 2-(2,3-dihydrobenzo[b][1,4]dioxin-6-yl)-6-(4-(trans-3-methoxycyclobutylamino)piperidin-1-yl)benzonitrile], for which the pIC50 is at least 7.00. The same measure for `CC(C)(CO)CNC1CCN(c2cccc(-c3ccc4c(c3)OCCO4)c2C#N)CC1` [Example 6, 2-(2,3-dihydrobenzo[b][1,4]dioxin-6-yl)-6-(4-(3-hydroxy-2,2-dimethylpropylamino)piperidin-1-yl)benzonitrile]: at least 7.00. Consider `Cc1c(-c2ccccc2)cccc1N1CCC(NC2CCC(CC#N)CC2)CC1` (stereo not drawn) [Example 39, 2-(4-(1-(2-methylbiphenyl-3-yl)piperidin-4-ylamino)cyclohexyl) acetonitrile], for which the pIC50 was at least 7.00. The same measure for `N#Cc1c(-c2cccc(F)c2)cccc1N1CCC(N2CCCC2)CC1` [Example 49, 3′-fluoro-3-(4-(pyrrolidin-1-yl)piperidin-1-yl)biphenyl-2-carbonitrile]: at least 7.00.
